Source: paper PMC6450568 (Bioorganic & medicinal chemistry letters, 2019)
Where a name gives a salt, the structure may show the parent alone. Read-outs that look alike come from different tables or passages of the source.

What was measured:
[1] = molecular target: T1, native Rho (rhodanese) reporter enzyme (Bos taurus, UniProt P00586); assay: Native Rho enzymatic reporter counter-screen; type: biochemical
T1 sequence (P00586 2-297 limits assumed): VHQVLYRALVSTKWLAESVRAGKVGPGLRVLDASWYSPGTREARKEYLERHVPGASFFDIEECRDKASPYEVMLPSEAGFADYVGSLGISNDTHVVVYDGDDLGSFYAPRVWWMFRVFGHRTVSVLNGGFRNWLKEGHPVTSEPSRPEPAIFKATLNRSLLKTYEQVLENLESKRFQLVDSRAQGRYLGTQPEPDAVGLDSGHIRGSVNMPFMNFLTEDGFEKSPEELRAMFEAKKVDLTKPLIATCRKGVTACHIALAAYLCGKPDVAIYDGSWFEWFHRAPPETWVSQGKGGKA

[2] = molecular target: T2, native MDH (malate dehydrogenase) reporter enzyme (Sus scrofa, UniProt P00346); assay: Native MDH enzymatic reporter counter-screen; type: biochemical
T2 sequence (P00346 25-338): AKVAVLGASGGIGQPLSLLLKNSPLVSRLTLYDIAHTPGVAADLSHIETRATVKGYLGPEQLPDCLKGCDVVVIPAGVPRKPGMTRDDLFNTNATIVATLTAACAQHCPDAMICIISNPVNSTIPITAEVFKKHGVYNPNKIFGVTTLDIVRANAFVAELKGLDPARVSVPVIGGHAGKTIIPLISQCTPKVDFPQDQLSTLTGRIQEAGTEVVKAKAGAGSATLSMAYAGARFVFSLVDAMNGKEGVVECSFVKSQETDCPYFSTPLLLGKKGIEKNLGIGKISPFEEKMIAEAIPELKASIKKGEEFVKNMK

[3] = molecular target: human HSP60/10 chaperonin system (Homo sapiens, UniProt P10809); assay: HSP60/10-dMDH refolding assay; type: biochemical
[4] = molecular target: GroEL ATPase (Escherichia coli, UniProt P0A6F5); assay: biochemical
[5] = molecular target: T3, E. coli GroEL/ES chaperonin system (Escherichia coli, UniProt P0A6F5); assay: biochemical
[6] = molecular target: E. coli GroEL (Escherichia coli, UniProt P0A6F5); assay: Isothermal Titration Calorimetry of suramin binding to GroEL; conditions: ITC, average of triplicate analyses
[7] = molecular target: T3, E. coli GroEL/ES chaperonin system; assay: High-throughput screens of LOPAC and MicroSource Spectrum libraries; type: biochemical; conditions: both GroEL/ES-dMDH and GroEL/ES-dRho screens, single concentration
[8] = molecular target: T3, E. coli GroEL/ES chaperonin system; assay: biochemical; remark: listed apart in the source
[9] = Biochemical Assay IC50, GroEL/ES-mediated refolding of dMDH, dose-response

E. coli GroEL, sequence (P0A6F5 2-548): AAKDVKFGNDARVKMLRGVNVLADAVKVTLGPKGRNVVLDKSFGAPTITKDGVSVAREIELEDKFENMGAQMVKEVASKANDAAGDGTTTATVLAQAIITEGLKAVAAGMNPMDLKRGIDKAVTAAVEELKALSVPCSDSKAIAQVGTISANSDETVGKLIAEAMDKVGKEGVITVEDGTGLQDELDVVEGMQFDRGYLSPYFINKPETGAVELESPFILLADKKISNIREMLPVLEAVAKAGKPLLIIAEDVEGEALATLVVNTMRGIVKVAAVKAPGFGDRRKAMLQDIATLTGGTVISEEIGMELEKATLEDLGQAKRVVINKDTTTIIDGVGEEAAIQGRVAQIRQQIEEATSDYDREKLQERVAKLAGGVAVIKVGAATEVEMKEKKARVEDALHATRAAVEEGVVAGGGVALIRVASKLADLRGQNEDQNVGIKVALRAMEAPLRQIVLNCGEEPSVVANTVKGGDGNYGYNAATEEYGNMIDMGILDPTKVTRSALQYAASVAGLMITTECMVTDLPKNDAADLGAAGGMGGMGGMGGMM
T3 sequence (P0A6F5 2-548): as above
GroEL ATPase, sequence (P0A6F5 2-548): as above
human HSP60/10 chaperonin system, sequence (P10809 27-573): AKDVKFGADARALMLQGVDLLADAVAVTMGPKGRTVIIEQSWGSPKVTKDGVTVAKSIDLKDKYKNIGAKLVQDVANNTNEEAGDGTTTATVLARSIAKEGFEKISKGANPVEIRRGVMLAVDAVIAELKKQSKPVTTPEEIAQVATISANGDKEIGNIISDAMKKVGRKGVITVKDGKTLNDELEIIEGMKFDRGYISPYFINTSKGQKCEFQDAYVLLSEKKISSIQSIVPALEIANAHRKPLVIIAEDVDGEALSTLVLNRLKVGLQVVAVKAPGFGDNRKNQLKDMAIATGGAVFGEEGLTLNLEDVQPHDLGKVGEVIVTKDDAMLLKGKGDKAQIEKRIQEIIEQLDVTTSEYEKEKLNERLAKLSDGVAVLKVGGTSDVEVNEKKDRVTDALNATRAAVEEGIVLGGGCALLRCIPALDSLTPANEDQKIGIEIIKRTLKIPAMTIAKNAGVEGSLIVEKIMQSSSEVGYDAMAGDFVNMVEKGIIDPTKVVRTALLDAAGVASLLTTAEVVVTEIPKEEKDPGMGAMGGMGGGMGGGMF

## COc1ccc(-c2ccc3cc(C(=O)O)ccc3c2)cc1C12CC3CC(CC(C3)C1)C2 [Compound 3, Adapalene]
[1]
  IC50: > 100 µM
[2]
  IC50: > 63 µM

## COc1cc(/C=C/C(=O)CC(=O)/C=C/c2ccc(O)c(OC)c2)ccc1O [Compound 4, Curcumin]
[2]
  IC50: > 63 µM

## C=CC1=C(C)c2cc3[nH]c(cc4nc(cc5[nH]c(cc1n2)c(C)c5CCC(=O)O)C(CCC(=O)O)=C4C)c(C)c3C=C [Compound 5, Protoporphyrin IX]
[1]
  IC50: > 100 µM
[2]
  IC50: > 63 µM

## C=C(CC)C(=O)c1ccc(OCC(=O)O)c(Cl)c1Cl [Compound 6, Ethacrynic acid]
[1]
  IC50: > 100 µM
[2]
  IC50: > 63 µM

## CCCCCCCCCCCCCCCCC(C(=O)O)C(O)(CC(=O)O)C(=O)O (centres unmarked) [Compound 7, Agaric acid]
[1]
  IC50: > 100 µM
[2]
  IC50: > 63 µM

## CCCCCCCCCCCCCCCC[N+](C)(C)C [Compound 11, Hexadecyltrimethylammonium bromide]
[1]
  IC50: > 100 µM
[2]
  IC50: > 63 µM

## O=C(O)C1=CC(=C(c2ccc(O)c(C(=O)O)c2)c2ccc(O)c(C(=O)O)c2)C=CC1=O [Compound 13, Aurintricarboxylic acid]
[1]
  IC50: > 100 µM

## CC1(C)CCC2=C(O1)c1ccccc1C(=O)C2=O [Compound 15, β-laphachone]
[2]
  IC50: > 63 µM

## Cc1cc(C(C#N)c2ccc(Cl)cc2)c(Cl)cc1NC(=O)c1cc(I)cc(I)c1O (centres unmarked) [Compound 16, Closantel]
[1]
  IC50: > 100 µM

## O=c1c(O)c(-c2ccc(O)c(O)c2)oc2c(O)c(O)cc(O)c12 [Compound 18, Gossypetin]
[2]
  IC50: > 63 µM

## CCCCCCCCCCCCCCCC(=O)OC[C@H](O)[C@H]1OC(=O)C(O)=C1O [Compound 20, L-Ascorbyl palmitate]
[2]
  IC50: > 63 µM

## CC1=CC(=O)c2c(O)cccc2C1=O [Compound 21, Plumbagin]
[2]
  IC50: > 63 µM

## COc1cc(-c2ccc(/N=N/c3ccc4c(S(=O)(=O)O)cc(S(=O)(=O)O)c(N)c4c3O)c(OC)c2)ccc1/N=N/c1ccc2c(S(=O)(=O)O)cc(S(=O)(=O)O)c(N)c2c1O [Compound 22, Pontamine sky blue]
[2]
  IC50: > 63 µM
[3]
  IC50: 6.8 µM
[4]
  IC50: > 250 µM

## C=C(NC(=O)C(=C)NC(=O)c1csc(C2=N[C@@H]3c4csc(n4)[C@H]4NC(=O)c5csc(n5)[C@H]([C@](C)(O)[C@@H](C)O)NC(=O)[C@H]5CSC(=N5)/C(=C/C)NC(=O)[C@H]([C@@H](C)O)NC(=O)c5csc(n5)[C@]3(CC2)NC(=O)[C@H](C)NC(=O)C(=C)NC(=O)[C@H](C)NC(=O)[C@H]([C@@H](C)CC)N[C@@H]2C=Cc3c([C@H](C)O)cc(nc3[C@H]2O)C(=O)O[C@@H]4C)n1)C(N)=O [Compound 24, Thiostrepton]
[1]
  IC50: > 100 µM
[2]
  IC50: > 63 µM

## CCCCC/C=C\C/C=C\C/C=C\C/C=C\CCCC(=O)O [Compound 27, Arachidonic acid]
[1]
  IC50: > 100 µM
[2]
  IC50: > 63 µM

## Cc1ccc(C(=O)Nc2ccc(S(=O)(=O)O)c3cc(S(=O)(=O)O)cc(S(=O)(=O)O)c23)cc1NC(=O)c1cccc(NC(=O)Nc2cccc(C(=O)Nc3cc(C(=O)Nc4ccc(S(=O)(=O)O)c5cc(S(=O)(=O)O)cc(S(=O)(=O)O)c45)ccc3C)c2)c1 [Compound 28, Suramin]
[1]
  IC50: > 100 µM
[2]
  IC50: > 63 µM
[5]; Assay IC50, GroEL/ES-dMDH Refolding, Table 1
  IC50: 8.1 µM
[5]; [9]
  IC50: 8.1 µM
[5]; IC50 values for inhibiting GroEL/ES refolding functions, approximate, dMDH and dRho refolding assays together
  IC50: 10 to 15 µM
[6]
  Kd: 21 µM
  Log(Kd/μM): 1.31 ± 0.30
  TΔS: 4.15 ± 0.72 kcal/mol
  ΔG: -6.22 ± 0.41 kcal/mol
  ΔH: -2.07 ± 0.36 kcal/mol
  ΔS: 0.014 ± 0.002 kcal/mol·K
[6]; per GroEL tetradecamer, listed as Suramin (28)
  Stoichiometry n, Molecule : GroEL oligomer: 9.4 ± 0.6
[6]; single-site binding model
  Stoichiometry n, Molecule : GroEL monomer: 0.67 ± 0.05
[7]
  inhibition cutoff in primary and secondary high-throughput screens: did not meet the 50% inhibition cutoff

## Oc1c(Cl)cc(Cl)cc1Sc1cc(Cl)cc(Cl)c1O [Compound 29, Bithionol]
[1]
  IC50: > 100 µM

## CC1=CC(=O)c2ccccc2C1=O [Compound 30, Menadione]
[2]
  IC50: > 63 µM

## CC[C@H](C)[C@H]1O[C@]2(C=C[C@@H]1C)C[C@@H]1C[C@@H](C/C=C(\C)[C@@H](O[C@H]3C[C@H](OC)[C@@H](O[C@H]4C[C@H](OC)[C@@H](O)[C@H](C)O4)[C@H](C)O3)[C@@H](C)/C=C/C=C3\CO[C@@H]4[C@H](O)C(C)=C[C@@H](C(=O)O1)[C@]34O)O2 [Compound 32, Abamectin (Avermectin b1a)]
[1]
  IC50: > 100 µM
[2]
  IC50: > 63 µM

## CC[C@H](C)C1O[C@]2(C=C[C@@H]1C)C[C@@H]1C[C@@H](C/C=C(\C)[C@@H](O[C@H]3C[C@H](OC)[C@@H](O[C@H]4C[C@H](OC)[C@H](NC(C)=O)[C@H](C)O4)[C@H](C)O3)[C@@H](C)/C=C/C=C3\CO[C@@H]4[C@H](O)C(C)=C[C@@H](C(=O)O1)[C@]34O)O2 (some centres unmarked) [Compound 33, Eprinomectin]
[1]
  IC50: > 100 µM
[2]
  IC50: > 63 µM

## CN(C)c1ccc(C(=C2C=CC(=[N+](C)C)C=C2)c2ccc(N(C)C)cc2)cc1 [Compound 34, Crystal violet]
[2]
  IC50: > 63 µM

## COc1ccc(C(=O)/C=C/c2ccccc2)cc1 [Compound 35, 4’-Methoxychalcone]
[1]
  IC50: > 100 µM
[2]
  IC50: > 63 µM

## O=C1c2ccccc2C(=O)c2c(O)c(O)cc(O)c21 [Compound 37, Purpurin]
[2]
  IC50: > 63 µM

## C[C@H](CCC(=O)O)[C@H]1CC[C@H]2[C@@H]3CC[C@@H]4C[C@H](O)CC[C@]4(C)[C@H]3CC[C@]12C [Compound 38, Lithocholic acid]
[1]
  IC50: > 100 µM
[2]
  IC50: > 63 µM

## CCc1oc2ccccc2c1C(=O)c1cc(Br)c(O)c(Br)c1 [Compound 40, Benzbromarone]
[1]
  IC50: > 100 µM
[2]
  IC50: > 63 µM

## C=C1CC[C@H](O)C/C1=C/C=C1\CCC[C@]2(C)[C@@H]([C@H](C)CCCC(C)C)CC[C@@H]12 [Compound 41, Cholecalciferol (vtamin D3)]
[1]
  IC50: > 100 µM
[2]
  IC50: > 63 µM

## O=C(/C=C/c1ccc(O)cc1)c1ccccc1 [Compound 43, 4-Hydroxychalcone]
[1]
  IC50: > 100 µM
[2]
  IC50: > 63 µM

## O=C(/C=C/c1ccccc1)c1ccc(O)cc1 [Compound 44, 4’-Hydroxychalcone]
[1]
  IC50: > 100 µM
[2]
  IC50: > 63 µM

## Oc1ccc(Cl)cc1Cc1cc(Cl)ccc1O [Compound 45, Dichlorophen]
[1]
  IC50: > 100 µM
[2]
  IC50: > 63 µM

## C=C1CC[C@H](O)C/C1=C/C=C1\CCC[C@]2(C)[C@@H]([C@H](C)/C=C/[C@H](C)C(C)C)CC[C@@H]12 [Compound 46, Calciferol (Vtamin D2)]
[2]
  IC50: > 63 µM

## CC(COc1ccccc1)N(CCCl)Cc1ccccc1 (centres unmarked) [Compound 47, Phenoxybenzamine HCl]
[1]
  IC50: > 100 µM
[2]
  IC50: > 63 µM

## COc1cc(NC(C)CCCN)c2ncccc2c1 (centres unmarked) [Compound 49, Primiquine]
[2]
  IC50: > 63 µM

## Cc1cc2nc3c(=O)[nH]c(=O)nc-3n(C[C@H](O)[C@H](O)[C@H](O)COP(=O)(O)O)c2cc1C [Compound 50, Riboflavin-5-phosphate sodium salt]
[2]
  IC50: > 63 µM

## CC[n+]1c(-c2ccccc2)c2cc(N)ccc2c2ccc(N)cc21 [Compound 51, Ethidium bromide]
[2]
  IC50: > 63 µM

## CC[C@H]1OC(=O)[C@H](C)[C@@H](O[C@H]2C[C@@](C)(OC)[C@@H](O)[C@H](C)O2)[C@H](C)[C@@H](O[C@@H]2O[C@H](C)C[C@H](N(C)C)[C@H]2O)[C@](C)(O)C[C@@H](C)C(=O)[C@H](C)[C@@H](O)[C@]1(C)O [Compound 55, (−)-Erythromycin]
[1]
  IC50: > 100 µM
[2]
  IC50: > 63 µM

## CCOc1nc2cccc(C(=O)O)c2n1Cc1ccc(-c2ccccc2-c2nnn[nH]2)cc1 [Compound 56, Candesartan]
[1]
  IC50: > 100 µM
[2]
  IC50: > 63 µM

## CC(C)(C)NCC(O)c1ccc(O)c(CO)c1 (centres unmarked) [Compound 57, Albuterol]
[1]
  IC50: > 100 µM
[2]
  IC50: > 63 µM

## CCCCN1CCC(COC(=O)c2cc(Cl)c(N)c3c2OCCO3)CC1 [Compound 59, SB 204070]
[1]
  IC50: > 100 µM
[2]
  IC50: > 63 µM

## CC(C)n1c(/C=C/C(O)CC(O)CC(=O)O)c(-c2ccc(F)cc2)c2ccccc21 (centres unmarked) [Compound 60, Fluvastatin sodium]
[1]
  IC50: > 100 µM
[2]
  IC50: > 63 µM
[8]
  IC50: > 250 µM
[5]; [9]
  IC50: > 100 µM
[3]
  IC50: > 100 µM
[4]
  IC50: > 250 µM
